Measurements from PMC8151276, “An Integrated Approach toward NanoBRET Tracers for Analysis of GPCR Ligand Engagement” (Molecules, 2021).

Key:
NPY4R = target: T1, NPY4R (Homo sapiens, UniProt P50391); assay: NanoBRET screen HiBiT-NPY4R in HEK293; type: binding
T1 construct: purchased Promega (in-house HiBiT-GPCR construct library, NanoBRET)
Experimental: (§1) Each tracer candidate was screened across the entire library of HiBiT-GPCR constructs using NanoBRET as the detection modality. As depicted in Figure 4A, the specificity of interactions was evaluated through decrease in BRET due to competitive displacement of a bound tracer by excess parental compound. Each tracer was analyzed for binding to each HiBiT-GPCR fusion in the absence and in the presence of competing parental compound. Briefly, HEK293 cells were transfected with HiBiT-GPCR constructs diluted into promoterless DNA to reduce expression and maximize translocation to the cell surface. Each tracer candidate was then screened at concentrations of 1 μM and 0.1 μM across cells expressing these fusions. Cells were treated for 1.5 h with tracer either alone or in the presence of 20 μM competing parental compound (i.e., control). BRET was measured upon addition of purified LgBiT and subsequent complementation with HiBiT genetically fused to a GPCR. The specificity of interactions was assessed through a decrease in BRET signal due to competitive displacement of the bound tracer. To further gauge the robustness of these interactions, the fold response over the control (i.e., BRETtracer/BRETcontrol) was calculated. We chose a 1.5-fold response, which translates to ≥7-fold signal over noise as the minimal threshold required to score an interaction as positive.
(§2) HiBiT-GPCR DNA constructs were diluted in 10 mM Tris pH 8 to a final concentration of 0.01 μg/μL, arrayed in 96-well plates and stored at −20 °C. For transfection, HEK293 cells were suspended in Opti-MEM (without phenol red) supplemented with 2% fetal bovine serum (Seradigm) and 100 units/mL penicillin–streptomycin (Gibco) at a final concentration of 220,000 cells/mL and dispensed into white 96-well plates at 90 μL/well. Subsequent transfections and screens were carried using an Agilent Bravo Automated Liquid Handling Platform. First, the 96-well HiBiT DNA arrays were diluted 25-fold in Opti-MEM (without serum or phenol red) to a final concentration of 0.0004 μg/μL and 20 μL of the diluted DNAs were transferred into new 96-well plates. Next, promoterless carrier DNA (1 μg/μL) was diluted 25-fold (0.04 μg/μL) and then dispensed into the diluted arrays at 20 μL/well. Following brief mixing, Viafect transfection reagent (Promega) diluted 16-fold into Opti-MEM was dispensed into the plates at 40 μL/well. After mixing by pipetting, plates were incubated for 10 min on the pipetting station deck. The DNA-transfection reagent complexes were then added to plates containing cells. To facilitate the screen, 10 μL of DNA-transfection reagent complexes were added in duplicates to the top 4 and bottom 4 rows, resulting in two identical 48-well arrays per plate. Plates with transfected cells were incubated for 18–20 h at 37 °C/5% CO2. A screen of each tracer across the entire library using two different concentrations requires duplicate plates of transfected cells. Depending on the number of tracers being screened, transfections can be scaled up using the same ratios. The next day, for each tracer, four 20× screening solutions in tracer dilution buffer (Promega) were prepared: two duplicates at final concentration of 20 μM and two duplicates at a final concentration of 2 μM. […] The four resulting solutions were diluted 4-fold in Opti-MEM without serum or phenol red to generate 5× solutions (5 µM and 0.5 µM tracer +/− 100 μM competing compound). To screen the library, a BioTek MultiFlo FX liquid dispenser was used to dispense 22.5 µL of tracer solution to the top 4 rows and 22.5 µL tracer + competing compound solution to the 4 bottom rows. Plates were briefly mixed on an orbital shaker and incubated for 1.5 h at room temperature. […] Plates were briefly mixed on an orbital shaker and incubated for 15 min to allow complementation.

GRM7 = target: T2, GRM7 (Homo sapiens, UniProt Q14831); assay: NanoBRET screen HiBiT-GRM7 in HEK293; type: binding
T2 construct: purchased Promega (in-house HiBiT-GPCR construct library, NanoBRET)
Experimental: as §1, §2

T1 sequence (P50391 whole entry): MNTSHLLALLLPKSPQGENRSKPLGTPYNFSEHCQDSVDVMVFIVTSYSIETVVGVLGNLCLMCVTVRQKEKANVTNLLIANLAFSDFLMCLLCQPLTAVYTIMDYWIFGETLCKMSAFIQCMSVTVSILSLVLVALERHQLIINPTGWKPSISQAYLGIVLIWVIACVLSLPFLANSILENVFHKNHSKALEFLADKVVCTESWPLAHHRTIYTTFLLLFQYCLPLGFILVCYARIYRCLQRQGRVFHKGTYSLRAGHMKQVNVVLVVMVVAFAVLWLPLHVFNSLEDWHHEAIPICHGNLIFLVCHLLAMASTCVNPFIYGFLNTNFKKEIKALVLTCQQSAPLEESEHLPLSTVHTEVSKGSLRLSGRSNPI
T2 sequence (Q14831 35-915): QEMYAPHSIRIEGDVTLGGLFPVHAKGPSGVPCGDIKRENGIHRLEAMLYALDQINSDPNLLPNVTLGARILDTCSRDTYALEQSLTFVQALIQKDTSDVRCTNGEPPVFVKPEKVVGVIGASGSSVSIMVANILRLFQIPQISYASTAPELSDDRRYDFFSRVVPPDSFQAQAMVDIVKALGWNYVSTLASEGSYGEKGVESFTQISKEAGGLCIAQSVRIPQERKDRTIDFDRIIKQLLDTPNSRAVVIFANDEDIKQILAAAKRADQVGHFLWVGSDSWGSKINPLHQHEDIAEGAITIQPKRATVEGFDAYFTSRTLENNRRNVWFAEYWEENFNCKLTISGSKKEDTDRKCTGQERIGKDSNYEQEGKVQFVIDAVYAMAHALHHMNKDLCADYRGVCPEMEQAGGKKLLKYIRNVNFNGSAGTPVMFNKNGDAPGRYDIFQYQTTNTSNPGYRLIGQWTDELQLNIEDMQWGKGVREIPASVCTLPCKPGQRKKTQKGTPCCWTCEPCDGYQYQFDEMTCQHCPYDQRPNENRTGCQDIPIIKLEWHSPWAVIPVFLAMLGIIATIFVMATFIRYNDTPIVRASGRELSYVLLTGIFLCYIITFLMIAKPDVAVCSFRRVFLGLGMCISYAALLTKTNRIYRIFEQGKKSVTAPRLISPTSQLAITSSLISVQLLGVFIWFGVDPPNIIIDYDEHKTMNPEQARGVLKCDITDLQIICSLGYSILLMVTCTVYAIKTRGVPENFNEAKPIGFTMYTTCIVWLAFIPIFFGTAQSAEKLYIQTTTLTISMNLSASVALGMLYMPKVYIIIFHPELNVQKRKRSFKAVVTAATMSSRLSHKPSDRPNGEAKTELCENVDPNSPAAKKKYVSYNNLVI

Row | SMILES | NanoBRET Fold Response (NPY4R; NPY4R, tracer 0.1μM) | NanoBRET Fold Response (NPY4R; NPY4R, tracer 1μM) | NanoBRET Fold Response (GRM7; GRM7, tracer 0.1μM) | NanoBRET Fold Response (GRM7; GRM7, tracer 1μM) | other results
1 | CCOC(=O)c1cc(C#N)c(N2CCC(C(=O)NS(=O)(=O)Cc3ccccc3/C=C/C(=O)NCCNC(=O)CCc3ccc4n3[B-](F)(F)[N+]3=C(c5ccc[nH]5)C=CC3=C4)CC2)nc1C [AZD1283-1-NB590] |  |  |  |  | NanoBRET Fold Response (NPY4R; NPY4R, 0.1μM): 1.02; NanoBRET Fold Response (NPY4R; NPY4R, 1μM): 1.03; NanoBRET Fold Response (GRM7; GRM7, 0.1μM): 0.98; NanoBRET Fold Response (GRM7; GRM7, 1μM): 1.05
2 | N#CN=C(NCCCOc1cccc(CN2CCCCC2)c1)NCCNC(=O)CCOCCOCCOCCOCCNC(=O)CCc1ccc2n1[B-](F)(F)[N+]1=C(c3ccc[nH]3)C=CC1=C2 [Aminopotentidine-2-NB590] | 1.01 | 0.98 | 0.98 | 1.05 | 
3 | CN(C)CCC=C1c2ccccc2CCc2ccc(C(=O)NCCNC(=O)CCOCCOCCOCCOCCNC(=O)CCc3ccc4n3[B-](F)(F)[N+]3=C(c5ccc[nH]5)C=CC3=C4)cc21 [Amitriptyline-a-2-NB590] |  |  |  |  | NanoBRET Fold Response (NPY4R; tracer at 0.1μM): 1.11; NanoBRET Fold Response (NPY4R; tracer at 1μM): 0.96
4 | CN(C)CCC=C1c2ccccc2CCc2ccc(C(=O)NCCNC(=O)CCOCCOCCOCCOCCNC(=O)CCc3ccc4n3[B-](F)(F)[N+]3=C(c5ccc[nH]5)C=CC3=C4)cc21 [Amitriptyline-b-2-NB590] |  |  | 1.09 | 1.00 | NanoBRET Fold Response (NPY4R; tracer at 1μM, listed as amitriptyline-b-2-NB590): 1.03
5 | COc1ccc2c(n1)c(CCNC(C)=O)cn2CCNC(=O)CCc1ccc2n1[B-](F)(F)[N+]1=C(c3ccc[nH]3)C=CC1=C2 [Azamelatonin-1-NB590] |  |  |  |  | NanoBRET Fold Response (NPY4R; 0.1μM tracer): 1.11; NanoBRET Fold Response (NPY4R; 1μM tracer): 1.08; NanoBRET Fold Response (GRM7; 0.1μM tracer): 1.10; NanoBRET Fold Response (GRM7; 1μM tracer): 1.16
6 | COc1ccc2[nH]c(-c3ccc(CNC(=O)CCOCCOCCOCCOCCNC(=O)CCc4ccc5n4[B-](F)(F)[N+]4=C(c6ccc[nH]6)C=CC4=C5)cc3)c(CCNC(C)=O)c2n1 [AzomelatoninICO9-2-NB590] |  |  |  |  | NanoBRET Fold Response (NPY4R; 0.1μM tracer): 1.11; NanoBRET Fold Response (NPY4R; 1μM tracer): 0.94; NanoBRET Fold Response (GRM7; 0.1μM tracer): 1.03; NanoBRET Fold Response (GRM7; 1μM tracer): 1.08
7 | O=C(CCOCCOCCOCCOCCNC(=O)CCc1ccc2n1[B-](F)(F)[N+]1=C(c3ccc[nH]3)C=CC1=C2)NCCCN1CCN(C2=Nc3cc(Cl)ccc3Nc3ccccc32)CC1 [Clozapine-a-2-NB590] |  |  |  |  | NanoBRET Fold Response (NPY4R; NPY4R, 0.1μM tracer): 0.88; NanoBRET Fold Response (NPY4R; NPY4R, 1μM tracer): 1.40; NanoBRET Fold Response (GRM7; GRM7, 0.1μM tracer): 0.95; NanoBRET Fold Response (GRM7; GRM7, 1μM tracer): 0.92
8 | CN1CCN(C2=Nc3cc(Cl)ccc3Nc3ccc(CNC(=O)CCOCCOCCOCCOCCNC(=O)CCc4ccc5n4[B-](F)(F)[N+]4=C(c6ccc[nH]6)C=CC4=C5)cc32)CC1 [Clozapine-b-2-NB590] |  |  |  |  | NanoBRET Fold Response (NPY4R; NPY4R, 0.1μM tracer): 1.02; NanoBRET Fold Response (NPY4R; NPY4R, 1μM tracer): 1.08; NanoBRET Fold Response (GRM7; GRM7, 0.1μM tracer): 1.04; NanoBRET Fold Response (GRM7; GRM7, 1μM tracer): 0.93
9 | CN1CCN(C2=Nc3cc(Cl)ccc3N(CC(=O)NCCOCCOCCOCCOCCNC(=O)CCc3ccc4n3[B-](F)(F)[N+]3=C(c5ccc[nH]5)C=CC3=C4)c3ccccc32)CC1 [Clozapine-c-2-NB590] |  |  |  |  | NanoBRET Fold Response (GRM7; GRM7, 0.1μM tracer): 1.00; NanoBRET Fold Response (GRM7; GRM7, 1μM tracer): 1.03
10 | O=C(CCOCCOCCOCCOCCNC(=O)CCc1ccc2n1[B-](F)(F)[N+]1=C(c3ccc[nH]3)C=CC1=C2)NCCCN1CCN(C2=Nc3ccccc3Oc3ccc(Cl)cc32)CC1 [Loxapine-a-2-NB590] | 0.99 | 1.10 | 1.07 | 1.12 | 
11 | COc1ccccc1N1CCN(CCCCN2C(=O)c3ccc(CNC(=O)CCOCCOCCOCCOCCNC(=O)CCc4ccc5n4[B-](F)(F)[N+]4=C(c6ccc[nH]6)C=CC4=C5)cc3C2=O)CC1 [NAN-190-2-NB590] | 0.95 | 1.04 | 1.00 |  | 
12 | COc1ccccc1N1CCN(CCCCN2C(=O)c3ccc(CNC(=O)CCOCCNC(=O)c4ccc(CNC(=O)CCc5ccc6n5[B-](F)(F)[N+]5=C(c7ccc[nH]7)C=CC5=C6)cc4)cc3C2=O)CC1 [NAN-190-3-NB590] | 1.06 | 0.95 | 1.01 | 0.95 | 
13 | O=C(CCc1ccc2n1[B-](F)(F)[N+]1=C(c3ccc[nH]3)C=CC1=C2)NCc1ccc(C(=O)NCCOCCC(=O)N[C@@H]2CC[C@@]3(O)[C@H]4Cc5ccc(O)c6c5[C@@]3(CCN4CC3CC3)[C@H]2O6)cc1 [Naltrexone-3-NB590] | 1.04 | 0.91 | 1.01 | 0.93 | 
14 | Cc1cc2c(s1)Nc1ccccc1N=C2N1CCN(CCCNC(=O)CCOCCOCCOCCOCCNC(=O)CCc2ccc3n2[B-](F)(F)[N+]2=C(c4ccc[nH]4)C=CC2=C3)CC1 [Olanzapine-a-2-NB590] | 1.01 | 0.91 | 1.00 | 1.02 | 
15 | O=C(CCc1ccc2n1[B-](F)(F)[N+]1=C(c3ccc[nH]3)C=CC1=C2)NCc1ccc(C(=O)NCCOCCOCCNCC(O)COc2cccc3ccccc23)cc1 (centres unmarked) [Propranolol-3-NB590] |  |  |  |  | NanoBRET Fold Response (NPY4R; NPY4R, 0.1μM): 0.98; NanoBRET Fold Response (NPY4R; NPY4R, 1μM): 0.99; NanoBRET Fold Response (GRM7; GRM7, 0.1μM): 1.00; NanoBRET Fold Response (GRM7; GRM7, 1μM): 0.97
16 | O=C(CCc1ccc2n1[B-](F)(F)[N+]1=C(c3ccc[nH]3)C=CC1=C2)NCCOCCOCCNC(=O)OCCOCCN1CCN(C2=Nc3ccccc3Sc3ccccc32)CC1 [Quetiapine-a-2-NB590] | 1.06 | 0.73 | 1.03 | 1.05 | 
17 | Cc1nc2n(c(=O)c1CCN1CCC(c3noc4cc(F)ccc34)CC1)CCCC2OC(=O)NCCOCCOCCOCCOCCNC(=O)CCc1ccc2n1[B-](F)(F)[N+]1=C(c3ccc[nH]3)C=CC1=C2 (centres unmarked) [Risperidone-2-NB590] | 0.95 | 1.02 | 1.00 | 1.00 | 
18 | CC(C)N(CC[C@H](c1ccccc1)c1cc(CCNC(=O)CCOCCOCCOCCOCCNC(=O)CCc2ccc3n2[B-](F)(F)[N+]2=C(c4ccc[nH]4)C=CC2=C3)ccc1O)C(C)C [Tolterodine-2-NB590] | 0.86 | 1.09 | 1.18 | 0.89 | 
19 | CC(C)N(CC[C@H](c1ccccc1)c1cc(CCNC(=O)c2ccc(CNC(=O)CCc3ccc4n3[B-](F)(F)[N+]3=C(c5ccc[nH]5)C=CC3=C4)cc2)ccc1O)C(C)C [Tolterodine-BZ-NB590] | 0.88 | 0.98 | 0.99 | 1.02 | 
20 | CCCn1c(=O)c2[nH]c(-c3ccc(OCC(=O)NCCNC(=O)CCOCCNC(=O)c4ccc(CNC(=O)CCc5ccc6n5[B-](F)(F)[N+]5=C(c7ccc[nH]7)C=CC5=C6)cc4)cc3)nc2n(CCC)c1=O [XAC-3-NB590] | 0.97 | 0.86 | 1.03 | 1.07 | 
